{"source": "the supplement of paper PMC10307832", "test_in_all_cases": "relative viability (nuclei count vs DMSO), 5 days (fraction); higher = more cells survive", "key": {"HCC-44": {"system": "HCC-44", "how_it_was_run": "(§1)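 Five library-drug doses in √10 steps were combined with a fixed anchor-drug dose, or a single drug was given alone, by pin tool to lung cancer cell lines in 1536-well plates the day after seeding. Nuclei were stained and counted after 5 days. Relative viability is the nuclei count in treated wells over that in vehicle wells, taken as the median of duplicate plates.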"}, "NCI-H2347": {"system": "NCI-H2347", "how_it_was_run": "as §1"}, "NCI-H2126": {"system": "NCI-H2126", "how_it_was_run": "as §1"}, "HARA": {"system": "HARA", "how_it_was_run": "as §1"}, "UMC-11": {"system": "UMC-11", "how_it_was_run": "as §1"}, "HCC-15": {"system": "HCC-15", "how_it_was_run": "as §1"}, "NCI-H650": {"system": "NCI-H650", "how_it_was_run": "as §1"}, "NCI-H2023": {"system": "NCI-H2023", "how_it_was_run": "as §1"}, "PC-14": {"system": "PC-14", "how_it_was_run": "as §1"}, "EPLC-272H": {"system": "EPLC-272H", "how_it_was_run": "as §1"}, "NCI-H838": {"system": "NCI-H838", "how_it_was_run": "as §1"}, "NCI-H1915": {"system": "NCI-H1915", "how_it_was_run": "as §1"}, "NCI-H1651": {"system": "NCI-H1651", "how_it_was_run": "as §1"}, "SW 1573": {"system": "SW 1573", "how_it_was_run": "as §1"}, "LC-2-ad": {"system": "LC-2-ad", "how_it_was_run": "as §1"}, "NCI-H2085": {"system": "NCI-H2085", "how_it_was_run": "as §1"}, "HOP-62": {"system": "HOP-62", "how_it_was_run": "as §1"}, "NCI-H1993": {"system": "NCI-H1993", "how_it_was_run": "as §1"}, "NCI-H1355": {"system": "NCI-H1355", "how_it_was_run": "as §1"}, "COR-L23": {"system": "COR-L23", "how_it_was_run": "as §1"}, "ABC-1": {"system": "ABC-1", "how_it_was_run": "as §1"}, "LU99A": {"system": "LU99A", "how_it_was_run": "as §1"}, "NCI-H358": {"system": "NCI-H358", "how_it_was_run": "as §1"}}, "data": [{"smiles": "COc1nc(C)cnc1NS(=O)(=O)c1cccnc1-c1ccc(-c2nnco2)cc1", "note": "[Zibotentan] + CC(=O)c1c(C)c2cnc(Nc3ccc(N4CCNCC4)cn3)nc2n(C2CCCC2)c1=O [Palbociclib] (partner 0.5 µM)", "values": [{"measurement": "relative viability", "setting": "HCC-44; first compound 0.08 µM", "value": 0.98}, {"measurement": "relative viability", "setting": "HCC-44; first compound 0.253 µM", "value": 0.827}, {"measurement": "relative viability", "setting": "HCC-44; first compound 0.8 µM", "value": 0.949}, {"measurement": "relative viability", "setting": "HCC-44; first compound 2.53 µM", "value": 1}, {"measurement": "relative viability", "setting": "NCI-H2347; first compound 0.08 µM", "value": 0.407}, {"measurement": "relative viability", "setting": "NCI-H2347; first compound 0.253 µM", "value": 0.445}, {"measurement": "relative viability", "setting": "NCI-H2347; first compound 0.8 µM", "value": 0.439}, {"measurement": "relative viability", "setting": "NCI-H2347; first compound 2.53 µM", "value": 0.454}, {"measurement": "relative viability", "setting": "NCI-H2126; first compound 0.08 µM", "value": 0.316}, {"measurement": "relative viability", "setting": "NCI-H2126; first compound 0.253 µM", "value": 0.338}, {"measurement": "relative viability", "setting": "NCI-H2126; first compound 0.8 µM", "value": 0.34}, {"measurement": "relative viability", "setting": "NCI-H2126; first compound 2.53 µM", "value": 0.362}, {"measurement": "relative viability", "setting": "HARA; first compound 0.08 µM", "value": 0.297}, {"measurement": "relative viability", "setting": "HARA; first compound 0.253 µM", "value": 0.226}, {"measurement": "relative viability", "setting": "HARA; first compound 0.8 µM", "value": 0.27}, {"measurement": "relative viability", "setting": "HARA; first compound 2.53 µM", "value": 0.258}, {"measurement": "relative viability", "setting": "UMC-11; first compound 0.08 µM", "value": 0.35}, {"measurement": "relative viability", "setting": "UMC-11; first compound 0.253 µM", "value": 0.323}, {"measurement": "relative viability", "setting": "UMC-11; first compound 0.8 µM", "value": 0.363}, {"measurement": "relative viability", "setting": "UMC-11; first compound 2.53 µM", "value": 0.323}, {"measurement": "relative viability", "setting": "HCC-15; first compound 0.08 µM", "value": 0.796}, {"measurement": "relative viability", "setting": "HCC-15; first compound 0.253 µM", "value": 0.641}, {"measurement": "relative viability", "setting": "HCC-15; first compound 0.8 µM", "value": 0.796}, {"measurement": "relative viability", "setting": "HCC-15; first compound 2.53 µM", "value": 0.713}, {"measurement": "relative viability", "setting": "NCI-H650; first compound 0.08 µM", "value": 0.339}, {"measurement": "relative viability", "setting": "NCI-H650; first compound 0.253 µM", "value": 0.371}, {"measurement": "relative viability", "setting": "NCI-H650; first compound 0.8 µM", "value": 0.351}, {"measurement": "relative viability", "setting": "NCI-H650; first compound 2.53 µM", "value": 0.355}, {"measurement": "relative viability", "setting": "NCI-H2023; first compound 0.08 µM", "value": 0.409}, {"measurement": "relative viability", "setting": "NCI-H2023; first compound 0.8 µM", "value": 0.355}, {"measurement": "relative viability", "setting": "NCI-H2023; first compound 2.53 µM", "value": 0.356}, {"measurement": "relative viability", "setting": "PC-14; first compound 0.08 µM", "value": 0.68}, {"measurement": "relative viability", "setting": "PC-14; first compound 0.253 µM", "value": 0.459}, {"measurement": "relative viability", "setting": "PC-14; first compound 0.8 µM", "value": 0.607}, {"measurement": "relative viability", "setting": "PC-14; first compound 2.53 µM", "value": 0.519}, {"measurement": "relative viability", "setting": "EPLC-272H; first compound 0.08 µM", "value": 0.348}, {"measurement": "relative viability", "setting": "EPLC-272H; first compound 0.253 µM", "value": 0.246}, {"measurement": "relative viability", "setting": "EPLC-272H; first compound 0.8 µM", "value": 0.366}, {"measurement": "relative viability", "setting": "EPLC-272H; first compound 2.53 µM", "value": 0.33}, {"measurement": "relative viability", "setting": "NCI-H838; first compound 0.08 µM", "value": 0.227}, {"measurement": "relative viability", "setting": "NCI-H838; first compound 0.253 µM", "value": 0.207}, {"measurement": "relative viability", "setting": "NCI-H838; first compound 0.8 µM", "value": 0.191}, {"measurement": "relative viability", "setting": "NCI-H838; first compound 2.53 µM", "value": 0.233}, {"measurement": "relative viability", "setting": "NCI-H1915; first compound 0.08 µM", "value": 0.586}, {"measurement": "relative viability", "setting": "NCI-H1915; first compound 0.253 µM", "value": 0.499}, {"measurement": "relative viability", "setting": "NCI-H1915; first compound 0.8 µM", "value": 0.546}, {"measurement": "relative viability", "setting": "NCI-H1915; first compound 2.53 µM", "value": 0.569}, {"measurement": "relative viability", "setting": "NCI-H1651; first compound 0.08 µM", "value": 0.521}, {"measurement": "relative viability", "setting": "NCI-H1651; first compound 0.253 µM", "value": 0.522}, {"measurement": "relative viability", "setting": "NCI-H1651; first compound 0.8 µM", "value": 0.48}, {"measurement": "relative viability", "setting": "NCI-H1651; first compound 2.53 µM", "value": 0.492}, {"measurement": "relative viability", "setting": "SW 1573; first compound 0.08 µM", "value": 0.421}, {"measurement": "relative viability", "setting": "SW 1573; first compound 0.8 µM", "value": 0.385}, {"measurement": "relative viability", "setting": "SW 1573; first compound 2.53 µM", "value": 0.363}, {"measurement": "relative viability", "setting": "LC-2-ad; first compound 0.08 µM", "value": 0.489}, {"measurement": "relative viability", "setting": "LC-2-ad; first compound 0.253 µM", "value": 0.459}, {"measurement": "relative viability", "setting": "LC-2-ad; first compound 0.8 µM", "value": 0.44}, {"measurement": "relative viability", "setting": "LC-2-ad; first compound 2.53 µM", "value": 0.508}, {"measurement": "relative viability", "setting": "NCI-H2085; first compound 0.08 µM", "value": 0.47}, {"measurement": "relative viability", "setting": "NCI-H2085; first compound 0.253 µM", "value": 0.466}, {"measurement": "relative viability", "setting": "NCI-H2085; first compound 0.8 µM", "value": 0.496}, {"measurement": "relative viability", "setting": "NCI-H2085; first compound 2.53 µM", "value": 0.47}, {"measurement": "relative viability", "setting": "HOP-62; first compound 0.08 µM", "value": 0.47}, {"measurement": "relative viability", "setting": "HOP-62; first compound 0.253 µM", "value": 0.431}, {"measurement": "relative viability", "setting": "HOP-62; first compound 0.8 µM", "value": 0.518}, {"measurement": "relative viability", "setting": "HOP-62; first compound 2.53 µM", "value": 0.451}, {"measurement": "relative viability", "setting": "NCI-H1993; first compound 0.08 µM", "value": 0.661}, {"measurement": "relative viability", "setting": "NCI-H1993; first compound 0.253 µM", "value": 0.712}, {"measurement": "relative viability", "setting": "NCI-H1993; first compound 0.8 µM", "value": 0.537}, {"measurement": "relative viability", "setting": "NCI-H1993; first compound 2.53 µM", "value": 0.662}, {"measurement": "relative viability", "setting": "NCI-H1355; first compound 0.08 µM", "value": 0.407}, {"measurement": "relative viability", "setting": "NCI-H1355; first compound 0.253 µM", "value": 0.418}, {"measurement": "relative viability", "setting": "NCI-H1355; first compound 0.8 µM", "value": 0.388}, {"measurement": "relative viability", "setting": "NCI-H1355; first compound 2.53 µM", "value": 0.435}, {"measurement": "relative viability", "setting": "COR-L23; first compound 0.08 µM", "value": 0.338}, {"measurement": "relative viability", "setting": "COR-L23; first compound 0.253 µM", "value": 0.225}, {"measurement": "relative viability", "setting": "COR-L23; first compound 0.8 µM", "value": 0.366}, {"measurement": "relative viability", "setting": "COR-L23; first compound 2.53 µM", "value": 0.322}, {"measurement": "relative viability", "setting": "ABC-1; first compound 0.08 µM", "value": 0.603}, {"measurement": "relative viability", "setting": "ABC-1; first compound 0.253 µM", "value": 0.475}, {"measurement": "relative viability", "setting": "ABC-1; first compound 0.8 µM", "value": 0.664}, {"measurement": "relative viability", "setting": "ABC-1; first compound 2.53 µM", "value": 0.676}, {"measurement": "relative viability", "setting": "LU99A; first compound 0.08 µM", "value": 0.394}, {"measurement": "relative viability", "setting": "LU99A; first compound 0.253 µM", "value": 0.442}, {"measurement": "relative viability", "setting": "LU99A; first compound 0.8 µM", "value": 0.462}, {"measurement": "relative viability", "setting": "LU99A; first compound 2.53 µM", "value": 0.402}, {"measurement": "relative viability", "setting": "NCI-H358; first compound 0.08 µM", "value": 0.152}, {"measurement": "relative viability", "setting": "NCI-H358; first compound 0.253 µM", "value": 0.117}, {"measurement": "relative viability", "setting": "NCI-H358; first compound 2.53 µM", "value": 0.125}]}]}
